Test results: PMC7914648 (Pharmaceuticals, 2021)
Entries after “also recorded” stand apart in the source; their conditions may differ.

Key:
[1] = system: cultured glioma and glioblastoma cell lines; conditions: cited from earlier work
Source text: (§1) In turn, this difficulty may be due at least in part precisely to the TPP group, since the parent compound, PAP-1, is effective against various Central Nervous System (CNS) disorders. This difficulty is not surprising if one compares the characteristics of ...

orthotopic glioma = conditions: orthotopic murine model; cited from earlier work
Source text: as §1

C57BL mice = assay: Observed toxicity after tail vein injection; format: in vivo; conditions: 5 µmoles/kg bw by tail vein injection in mouse plasma; no proper toxicological study
Description: TAT-PAPTP (5 µmoles/kg bw) was administered by tail vein injection to 2 C57BL mice. […] The observed toxicity was not due to the use of plasma, since mice were not made ill by the administration of PAPTP or An2-PAPTP in the same vehicle (see below, Section 2.7).
(§2) A stock solution of the peptide-PAPTP conjugates was prepared in DMSO. TAT-PAPTP was administered at 8 and 5 μmol/kg bw and An2-PAPTP only at 5 μmol/kg bw. The calculated quantity of drugs was diluted from the stock solution in saline or mouse plasma to a final volume of 200 μL.

[2] = format: in vivo, mouse; conditions: PAPTP 5 µmoles/kg bw i.v. in mouse plasma, same procedure
Description: The brains of these mice were analyzed to evaluate the presence of the construct in the tissue (see Section 4.7). Each brain was homogenized and incubated with an equal volume of phosphate-buffered saline (PBS, pH 12.5) for 24 h; 10 volumes of ethyl acetate were then added. After vigorous mixing, the organic phase was collected, concentrated and analyzed via HPLC. This procedure allows hydrolysis of the carbamate bond, leading to the extraction of PAPTPL, which is considered proportional to the amount of peptide-PAPTP conjugate (or its fragments) present in the brain.
The protocol set up for PAPTPL recovery turned out to be inefficient for the quantification of TAT-PAPTP. An alternative protocol was thus developed. Tissue obtained from untreated mice was weighed and homogenized with PBS pH 7.4 (1 vol) with a potter. The pre-established amount of analyte was added into tissue homogenates and, after thorough vortexing, 1 vol of PBS pH 12.5 was added and the sample was incubated with intermittent vortexing at 60 °C for 24 h. This step is required to allow the hydrolysis of the carbamate bond connecting the peptide and PAPTPL. 10 vol of ethyl acetate were added and, after vortexing and sonication for 2 min, the sample was centrifuged at 12,000× g, 7 min, Room Temperature. The organic phase was collected and concentrated with Hetovac VR-1. ACN was added to the concentrated sample to allow the resuspension of PAPTPL and analyzed via HPLC. Quantification was as described for PAPTPL.
Brain and liver obtained from untreated mice were weighed and homogenized with PBS pH 7.4 (1 vol) with a potter. The pre-established amount of analyte was added into tissue homogenates and, after thorough vortexing, 5 vol of acetone were added and the sample was sonicated for 2 min. Subsequently, 5 vol of ACN containing 0.1% trifluoracetic acid (TFA) were added and the sample was sonicated for 5 min. The sample was then centrifuged at 12,000× g for 7 min at 4 °C and the supernatant was collected, concentrated with a Hetovac VR-1, and analyzed via HPLC-UV.
To quantify the amount of An2-PAPTP stuck in the tissue, the pellet remaining after the procedure described above was incubated with intermittent Vortexing at 60 °C for 3 h with PBS pH 12.5/ACN 1:1 and then centrifuged at 12,000× g for 7 min. HPLC-UV analysis of the supernatant, measuring PAPTPL hydrolyzed from the tissue, thus indirectly reflects the amount of An2-PAPTPL in the pellet (Scheme 3). Quantification was as described for PAPTPL.
as §2

[3] = Visible precipitation in mouse plasma vehicle; format: physicochemical; conditions: mouse plasma used as administration vehicle
Source text: We are not aware of other pharmacological studies utilizing plasma as a vehicle, but a precedent of sorts is provided by some rejuvenation or induced aging studies that examined the systemic effects of heterologous plasma administration.

SHSY-5Y cells = assay: MTS cell viability assay; format: cell-based; conditions: 24 h treatment, 20, 10 and 3 μM, absorbance 490 nm, n = 3
Description: SHSY-5Y cells (kindly provided by I. Szabò) were grown in Dulbecco’s Modified Eagle Medium (DMEM, Aurogene) supplemented with 10% (v/v) fetal bovine serum (FBS), 100 U/mL penicillin G, 0.1 mg/mL streptomycin and 5% glutamine.
SHSY-5Y cells were seeded (10,000 cells/well) in standard 96-well plates in DMEM (200 µL). After 24 h, the growth medium was replaced with a medium containing PAPTP and PAPTPL (from a stock solution in DMSO) at the desired final concentrations (20, 10 and 3 μM). DMEM without additions (CONTROL in Figure 2) was used as negative control. The final concentration of DMSO was 0.1% or lower in all cases (including control). After incubation for 24 h, 20 µL of CellTiter 96 AQUEOUS One solution (Promega, Italy) were added to each well and the plate was incubated at 37 °C in a humidified, 5% CO2 atmosphere for 4 h. Absorbance was measured at 490 nm to detect formazan formation.

[4] = heart after tail vein injection; conditions: C57BL/6 mice, up to 60 min
[5] = kidneys after tail vein injection; conditions: C57BL/6 mice, up to 60 min
[6] = spleen after tail vein injection; conditions: C57BL/6 mice, up to 60 min
[7] = liver extract after tail vein injection; conditions: C57BL/6 mice, up to 60 min
[8] = fresh mouse blood, withdrawn from the jugular vein and heparinized; conditions: C57BL mice, 37 °C, up to 4 h
mice = conditions: cited from earlier work
Description: While in the name of “reduction” a proper toxicological study was not carried out, the toxicity of TAT-PAPTP was evident. Peptide toxicity issues are not often discussed in the literature, but peptides, in particular arginine-rich ones, can be toxic in vivo as well as for cultured cells. […] Here the TAT-PAPTP conjugate was administered at 5 µmol/kg bw. However, conjugates can behave differently and have different toxicities depending on the attached “cargo” [54, 65, 66], as confirmed by the results of the present ...

[9] = mouse, in vivo, iv; cited from earlier work
[10] = Planar bilayer experiments (membrane permeabilization); conditions: 2 µM added to cis side, DPhPC bilayer, −40 mV, n = 3
Description: The possible effects of An2-PAPTP and TAT-PAPTP on phospholipid membranes were investigated using the lipid bilayer technique. Bilayers with a capacity of 100–150 pF were prepared “painting” a diphytanoylphosphatidylcholine (DPhPC, Avanti Polar Lipids) solution in octane across a 150-µm hole in a Delrin cuvette (Warner Instruments, a division of Harvard Bioscience, Inc., Holliston, MA, USA). The two compartments separated by the bilayer are identified as cis and trans, and all voltages refer to the cis side, zero being assigned to the trans (grounded) one. One mL of recording solution (150 mM KCl, 10 mM HEPES/KOH, pH 7.4) was placed in both compartments. The contents of both chambers were stirred by magnetic bars when necessary. […] An2-PAPTP or TAT-PAPTP (DMSO stock solution) in a final concentration of 0.5 µM were added to the cis side. The final concentration of DMSO was 0.6%. 2 µM gramicidin from Bacillus brevis (Sigma) was added to the cis side as control.
Electrical connections were made using Ag/AgCl electrodes and agar salt bridges to minimize eliminate liquid junction potentials. Data were acquired at 10 kHz using a Bilayer Clamp BC-525C amplifier (Warner Instruments, a division of Harvard Bioscience, Inc., Holliston, MA, USA.) and low-pass filtered at 300 Hz for presentation. […]

Compound: O=c1ccc2c(OCCCCOc3ccc(CCC[P+](c4ccccc4)(c4ccccc4)c4ccccc4)cc3)c3ccoc3cc2o1.[I-] [PAPTP, (3-(4-(4-((7-oxo-7H-furo[3,2-g]benzopyran-4-yl)oxy)butoxy)phenyl)propyl) triphenyl phosphonium iodide]
- killing of cultured glioma and glioblastoma cell lines [1]: efficiently killed
- effect on tumor growth (orthotopic glioma): did not affect tumor growth
- observed toxicity in mice (C57BL mice): not made ill; also recorded: No sign of toxicity was observed
- level in brain after i.v. PAPTP [2]: did not reach detectable levels
- visible precipitates in plasma [3]: did not form visible precipitates
- cytotoxic effect (cell viability, MTS reduction assay) (SHSY-5Y cells): marked cytotoxicity

Compound: HN-ITFFYGGSRGKRNNFKTEEY-OH
- fragment found [4]: PAPTPL, 15 min; also recorded: PAPTPL-IT, 30 min; also recorded: PAPTPL-ITF, 30 min
- fragment found [5]: PAPTPL-I, 15 min; also recorded: PAPTPL-IT, 15 min; also recorded: PAPTPL-ITF, 15 min
- fragment found [6]: PAPTPL-ITF, 15 min; also recorded: PAPTPL-I, 15 min; also recorded: PAPTPL-IT, 15 min
- fragment found [7]: PAPTPL-I, 15 min; also recorded: PAPTPL-IT, 15 min; also recorded: PAPTPL-ITF, 15 min
- cleaved bond [8]: hydrolysis of the carbamate bond connecting the peptide and PAPTPL, 10 min

Compound: TAT47–57: arginine-rich TAT peptide segment
- LD50 (mice): 17.5 µmol/kg bw

Compound: TWPKHFDKHTFYSILKLGKH [L57]
- brain input [9]: approximately 0.04 % of the injected dose

Compound: gramicidin
- appearance of ion currents in planar bilayers (control) [10]: expected development of “fast” ion currents
